# According to patent publication US20120197004A1, “NOVEL ANTI-MICROBIAL PEPTIDOMIMETIC COMPOUNDS AND METHODS TO CALCULATE ANTI-MICROBIAL ACTIVITY” (priority 2006, published 2012):
# Where a SMILES comes first, the peptide text is derived from it. [ ]: non-standard residue; d: D form. Phe(4-NO2) = N[C@@H](Cc1ccc([N+](=O)[O-])cc1)C(=O)O; Oic = O=C(O)[C@@H]1C[C@@H]2CCCC[C@@H]2N1; Phe(4-Cl) = N[C@@H](Cc1ccc(Cl)cc1)C(=O)O; Phe(4-F) = N[C@@H](Cc1ccc(F)cc1)C(=O)O; Tic = O=C(O)[C@@H]1Cc2ccccc2CN1; Dap = NC[C@H](N)C(=O)O; βAla = NCCC(=O)O
# Experiments:
# [1] = test system: Mycobacterium ranae (ATCC 110); settings: ATCC 110
# [2] = test system: Salmonella typhimurium (ATCC 13311)
# [3] = test system: Staphylococcus aureus Methicillin/Gentamicin/Tetracycline Resistant (ATCC 33592); settings: in vitro MIC; tested at 100, 30, 10, 3, 1, 0.3 and 0.1 μM in 1% DMSO
Structure (SMILES),Minimum Inhibitory Concentration Mycobacterium ranae [1],further results
"CC(=O)N[C@@H](CCCCN)C(=O)N[C@@H](CCCCN)C(=O)N[C@@H](CCCCN)C(=O)N[C@@H](CCCCN)C(=O)NCC(=O)N[C@@H](Cc1ccccc1)C(=O)N1Cc2ccccc2C[C@H]1C(=O)N1[C@H](C(=O)NCC(=O)N[C@@H](CCCCN)C(=O)N2Cc3ccccc3C[C@H]2C(=O)N2[C@H](C(=O)NCC(=O)N[C@@H](Cc3ccccc3)C(=O)N3Cc4ccccc4C[C@H]3C(=O)N3[C@H](C(=O)NCC(=O)N[C@@H](CCCCN)C(=O)N4Cc5ccccc5C[C@H]4C(N)=O)C[C@@H]4CCCC[C@@H]43)C[C@@H]3CCCC[C@@H]32)C[C@@H]2CCCC[C@@H]21 [FBAB-1Gq, Ac-KKKK-GF-Tic-Oic-GK-Tic-Oic-GF-Tic-Oic-GK-Tic-CONH2] (Ac-KKKKGF[Tic][Oic]GK[Tic][Oic]GF[Tic][Oic]GK[Tic]-NH2)",3 µM,–
"CC(=O)NCCC(=O)N[C@@H](Cc1ccc(F)cc1)C(=O)N1Cc2ccccc2C[C@H]1C(=O)N1[C@H](C(=O)NCCC(=O)N[C@@H](CN)C(=O)N2Cc3ccccc3C[C@H]2C(=O)N2[C@H](C(=O)NCCC(=O)N[C@@H](Cc3ccc(F)cc3)C(=O)N3Cc4ccccc4C[C@H]3C(=O)N3[C@H](C(=O)NCCC(=O)N[C@@H](CN)C(=O)N4Cc5ccccc5C[C@H]4C(=O)N[C@@H](CN)C(=O)N[C@@H](CN)C(=O)N[C@@H](CN)C(=O)N[C@@H](CN)C(N)=O)C[C@@H]4CCCC[C@@H]43)C[C@@H]3CCCC[C@@H]32)C[C@@H]2CCCC[C@@H]21 [FBAB-1Gw, Ac-βAla-Fpa-Tic-Oic-βAla-Dpr-Tic-Oic-βAla-Fpa-Tic-Oic-βAla-Dpr-Tic-Dpr-Dpr-Dpr-Dpr-CONH2] (Ac-[βAla][Phe(4-F)][Tic][Oic][βAla][Dap][Tic][Oic][βAla][Phe(4-F)][Tic][Oic][βAla][Dap][Tic][Dap][Dap][Dap][Dap]-NH2)",100 µM,selectivity for Salmonella typhimurium over Mycobacterium ranae ([2]; in vitro): 33 fold; selectivity for Salmonella typhimurium over Staphylococcus aureus ME/GM/TC resistant ([2]; in vitro): 10 fold
"CC(=O)NCC(=O)N[C@H](Cc1ccccc1)C(=O)N1Cc2ccccc2C[C@H]1C(=O)N1[C@H](C(=O)NCC(=O)N[C@@H](CCCCN)C(=O)N2Cc3ccccc3C[C@H]2C(=O)N2[C@H](C(=O)NCC(=O)N[C@H](Cc3ccccc3)C(=O)N3Cc4ccccc4C[C@H]3C(=O)N3[C@H](C(=O)NCC(=O)N[C@@H](CCCCN)C(=O)N4Cc5ccccc5C[C@H]4C(=O)N[C@@H](CCCCN)C(=O)N[C@@H](CCCCN)C(=O)N[C@@H](CCCCN)C(=O)N[C@@H](CCCCN)C(N)=O)C[C@@H]4CCCC[C@@H]43)C[C@@H]3CCCC[C@@H]32)C[C@@H]2CCCC[C@@H]21 [FKAB-1G2, Ac-G-dF-Tic-Oic-GK-Tic-Oic-G dF-Tic-Oic-GK-Tic-KKKK-CONH2] (Ac-G[dF][Tic][Oic]GK[Tic][Oic]G[dF][Tic][Oic]GK[Tic]KKKK-NH2)",10 µM,–
"CC(=O)NCC(=O)N[C@@H](Cc1ccccc1)C(=O)N1Cc2ccccc2C[C@H]1C(=O)N1[C@H](C(=O)NCC(=O)N[C@H](CCCCN)C(=O)N2Cc3ccccc3C[C@H]2C(=O)N2[C@H](C(=O)NCC(=O)N[C@@H](Cc3ccccc3)C(=O)N3Cc4ccccc4C[C@H]3C(=O)N3[C@H](C(=O)NCC(=O)N[C@H](CCCCN)C(=O)N4Cc5ccccc5C[C@H]4C(=O)N[C@@H](CCCCN)C(=O)N[C@@H](CCCCN)C(=O)N[C@@H](CCCCN)C(=O)N[C@@H](CCCCN)C(N)=O)C[C@@H]4CCCC[C@@H]43)C[C@@H]3CCCC[C@@H]32)C[C@@H]2CCCC[C@@H]21 [FKAB-1G3, Ac-GF-Tic-Oic-G-dK-Tic-Oic-GF-Tic-Oic-G-dK-Tic-KKKK-CONH2] (Ac-GF[Tic][Oic]G[dK][Tic][Oic]GF[Tic][Oic]G[dK][Tic]KKKK-NH2)",10 µM,–
"CC(=O)NCC(=O)N[C@@H](Cc1ccccc1)C(=O)N1Cc2ccccc2C[C@H]1C(=O)N1Cc2ccccc2C[C@H]1C(=O)NCC(=O)N[C@@H](CCCCN)C(=O)N1Cc2ccccc2C[C@H]1C(=O)N1Cc2ccccc2C[C@H]1C(=O)NCC(=O)N[C@@H](Cc1ccccc1)C(=O)N1Cc2ccccc2C[C@H]1C(=O)N1Cc2ccccc2C[C@H]1C(=O)NCC(=O)N[C@@H](CCCCN)C(=O)N1Cc2ccccc2C[C@H]1C(=O)N[C@@H](CCCCN)C(=O)N[C@@H](CCCCN)C(=O)N[C@@H](CCCCN)C(=O)N[C@@H](CCCCN)C(N)=O [FKAB-1Gg2, Ac-GF-Tic-Tic-GK-Tic-Tic-GF-Tic-Tic-GK-Tic-KKKK-CONH2] (Ac-GF[Tic][Tic]GK[Tic][Tic]GF[Tic][Tic]GK[Tic]KKKK-NH2)",10 µM,–
"CC(=O)NCC(=O)N[C@@H](Cc1ccc(Cl)cc1)C(=O)N1Cc2ccccc2C[C@H]1C(=O)N1[C@H](C(=O)NCC(=O)N[C@@H](CCCCN)C(=O)N2Cc3ccccc3C[C@H]2C(=O)N2[C@H](C(=O)NCC(=O)N[C@@H](Cc3ccc(Cl)cc3)C(=O)N3Cc4ccccc4C[C@H]3C(=O)N3[C@H](C(=O)NCC(=O)N[C@@H](CCCCN)C(=O)N4Cc5ccccc5C[C@H]4C(=O)N[C@@H](CCCCN)C(=O)N[C@@H](CCCCN)C(=O)N[C@@H](CCCCN)C(=O)N[C@@H](CCCCN)C(N)=O)C[C@@H]4CCCC[C@@H]43)C[C@@H]3CCCC[C@@H]32)C[C@@H]2CCCC[C@@H]21 [FKAB-1Go1, Ac-G-Cph-Tic-Oic-GK-Tic-Oic-G-Cph-Tic-Oic-GK-Tic-KKKK-CONH2] (Ac-G[Phe(4-Cl)][Tic][Oic]GK[Tic][Oic]G[Phe(4-Cl)][Tic][Oic]GK[Tic]KKKK-NH2)",10 µM,"Minimum Inhibitory Concentration Salmonella typhimurium ([2]; in vitro MIC, tested at 100, 30, 10, 3, 1, 0.3 and 0.1 μM in 1% DMSO): not active"
"CC(=O)NCC(=O)N[C@@H](Cc1ccc([N+](=O)[O-])cc1)C(=O)N1Cc2ccccc2C[C@H]1C(=O)N1[C@H](C(=O)NCC(=O)N[C@@H](CCCCN)C(=O)N2Cc3ccccc3C[C@H]2C(=O)N2[C@H](C(=O)NCC(=O)N[C@@H](Cc3ccc([N+](=O)[O-])cc3)C(=O)N3Cc4ccccc4C[C@H]3C(=O)N3[C@H](C(=O)NCC(=O)N[C@@H](CCCCN)C(=O)N4Cc5ccccc5C[C@H]4C(=O)N[C@@H](CCCCN)C(=O)N[C@@H](CCCCN)C(=O)N[C@@H](CCCCN)C(=O)N[C@@H](CCCCN)C(N)=O)C[C@@H]4CCCC[C@@H]43)C[C@@H]3CCCC[C@@H]32)C[C@@H]2CCCC[C@@H]21 [FKAB-1Go2, Ac-G-Nph-Tic-Oic-GK-Tic-Oic-G-Nph-Tic-Oic-GK-Tic-KKKK-CONH2] (Ac-G[Phe(4-NO2)][Tic][Oic]GK[Tic][Oic]G[Phe(4-NO2)][Tic][Oic]GK[Tic]KKKK-NH2)",10 µM,–
"CC(=O)NCC(=O)N[C@@H](Cc1ccccc1)C(=O)N1Cc2ccccc2C[C@H]1C(=O)N1[C@H](C(=O)NCC(=O)N[C@@H](CN)C(=O)N2Cc3ccccc3C[C@H]2C(=O)N2[C@H](C(=O)NCC(=O)N[C@@H](Cc3ccccc3)C(=O)N3Cc4ccccc4C[C@H]3C(=O)N3[C@H](C(=O)NCC(=O)N[C@@H](CN)C(=O)N4Cc5ccccc5C[C@H]4C(=O)N[C@@H](CN)C(=O)N[C@@H](CN)C(=O)N[C@@H](CN)C(=O)N[C@@H](CN)C(N)=O)C[C@@H]4CCCC[C@@H]43)C[C@@H]3CCCC[C@@H]32)C[C@@H]2CCCC[C@@H]21 [FKAB-1Gs, Ac-GF-Tic-Oic-G-Dpr-Tic-Oic-GF-Tic-Oic-G-Dpr-Tic-Dpr-DprDpr-Dpr-CONH2] (Ac-GF[Tic][Oic]G[Dap][Tic][Oic]GF[Tic][Oic]G[Dap][Tic][Dap][Dap][Dap][Dap]-NH2)",100 µM,Minimum Inhibitory Concentration Staphylococcus aureus ME/GM/TC resistant [3]: 10 μm μM
"CC(=O)NCCC(=O)N[C@@H](Cc1ccc(F)cc1)C(=O)N1Cc2ccccc2C[C@H]1C(=O)N1[C@H](C(=O)NCCC(=O)N[C@@H](CCCCN)C(=O)N2Cc3ccccc3C[C@H]2C(=O)N2[C@H](C(=O)NCCC(=O)N[C@@H](Cc3ccc(F)cc3)C(=O)N3Cc4ccccc4C[C@H]3C(=O)N3[C@H](C(=O)NCCC(=O)N[C@@H](CCCCN)C(=O)N4Cc5ccccc5C[C@H]4C(=O)N[C@@H](CN)C(=O)N[C@@H](CN)C(=O)N[C@@H](CN)C(=O)N[C@@H](CN)C(N)=O)C[C@@H]4CCCC[C@@H]43)C[C@@H]3CCCC[C@@H]32)C[C@@H]2CCCC[C@@H]21 [FKAB-1Gv, Ac-βAla-Fpa-Tic-Oic-βAla-K-Tic-Oic-βAla-Fpa-Tic-Oic-βAla-K-Tic-Dpr-Dpr-Dpr-Dpr-CONH2] (Ac-[βAla][Phe(4-F)][Tic][Oic][βAla]K[Tic][Oic][βAla][Phe(4-F)][Tic][Oic][βAla]K[Tic][Dap][Dap][Dap][Dap]-NH2)",30 µM,–
"CC(=O)NCC(=O)N[C@@H](Cc1ccccc1)C(=O)N1[C@H](C(=O)N2Cc3ccccc3C[C@H]2C(=O)NCC(=O)N[C@@H](CCCCN)C(=O)N2[C@H](C(=O)N3Cc4ccccc4C[C@H]3C(=O)NCC(=O)N[C@@H](Cc3ccccc3)C(=O)N3[C@H](C(=O)N4Cc5ccccc5C[C@H]4C(=O)NCC(=O)N[C@@H](CCCCN)C(=O)N4Cc5ccccc5C[C@H]4C(=O)N[C@@H](CCCCN)C(=O)N[C@@H](CCCCN)C(=O)N[C@@H](CCCCN)C(=O)N[C@@H](CCCCN)C(N)=O)C[C@@H]4CCCC[C@@H]43)C[C@@H]3CCCC[C@@H]32)C[C@@H]2CCCC[C@@H]21 [FKABB-1G1, Ac-GF-Oic-Tic-GK-Oic-Tic-GF-Oic-Tic-GK-Tic-KKKK-CONH2] (Ac-GF[Oic][Tic]GK[Oic][Tic]GF[Oic][Tic]GK[Tic]KKKK-NH2)",30 µM,–
"CC[C@H](C)[C@H](NC(=O)CN)C(=O)NCC(=O)N[C@@H](CCCCN)C(=O)N[C@@H](Cc1ccccc1)C(=O)N[C@@H](CC(C)C)C(=O)N[C@@H](Cc1c[nH]cn1)C(=O)N[C@@H](CO)C(=O)N[C@@H](C)C(=O)NCC(=O)N[C@@H](CCCCN)C(=O)N[C@@H](Cc1ccccc1)C(=O)NCC(=O)N[C@@H](CCCCN)C(=O)N[C@@H](C)C(=O)N[C@@H](Cc1ccccc1)C(=O)N[C@H](C(=O)NCC(=O)N[C@@H](CCC(=O)O)C(=O)N[C@H](C(=O)N[C@@H](CCSC)C(=O)N[C@@H](CCCCN)C(=O)N[C@@H](CO)C(=O)O)[C@@H](C)CC)C(C)C [Magainin I, magainin I, reference compound] (H-GIGKFLHSAGKFGKAFVGEIMKS-OH; N-terminus and C-terminus assumed)",–,Minimum Inhibitory Concentration Staphylococcus aureus ME/GM/TC resistant [3]: > 100 µM
